One assay deals with T1, human ANO6 (Homo sapiens, UniProt Q4KMQ2).
T1 construct: expressed in transfected cells
T1 sequence (Q4KMQ2 1-931 isoform Q4KMQ2-2): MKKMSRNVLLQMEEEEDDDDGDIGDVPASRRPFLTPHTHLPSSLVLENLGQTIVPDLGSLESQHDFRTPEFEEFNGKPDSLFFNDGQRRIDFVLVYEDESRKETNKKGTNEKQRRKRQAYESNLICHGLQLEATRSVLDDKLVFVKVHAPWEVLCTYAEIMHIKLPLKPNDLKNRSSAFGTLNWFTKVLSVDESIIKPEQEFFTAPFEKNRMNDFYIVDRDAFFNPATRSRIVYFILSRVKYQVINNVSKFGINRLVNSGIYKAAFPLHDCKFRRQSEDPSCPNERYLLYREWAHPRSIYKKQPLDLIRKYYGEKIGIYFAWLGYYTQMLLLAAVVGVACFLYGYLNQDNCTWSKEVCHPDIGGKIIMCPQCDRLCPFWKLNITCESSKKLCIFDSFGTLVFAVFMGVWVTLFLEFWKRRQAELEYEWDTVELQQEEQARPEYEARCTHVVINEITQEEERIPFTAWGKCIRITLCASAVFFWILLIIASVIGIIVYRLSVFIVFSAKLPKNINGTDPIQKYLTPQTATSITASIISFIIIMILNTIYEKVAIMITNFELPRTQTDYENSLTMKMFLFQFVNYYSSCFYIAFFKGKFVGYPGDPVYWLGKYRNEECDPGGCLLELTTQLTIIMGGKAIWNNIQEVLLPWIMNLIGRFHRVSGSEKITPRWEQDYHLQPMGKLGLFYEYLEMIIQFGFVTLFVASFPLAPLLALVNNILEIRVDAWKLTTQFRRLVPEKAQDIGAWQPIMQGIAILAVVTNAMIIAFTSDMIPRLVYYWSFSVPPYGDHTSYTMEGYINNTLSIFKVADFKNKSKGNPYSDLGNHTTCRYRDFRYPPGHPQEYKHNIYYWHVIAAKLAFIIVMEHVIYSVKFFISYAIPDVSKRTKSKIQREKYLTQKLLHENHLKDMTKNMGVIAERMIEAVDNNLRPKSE
The experiment in a line: LACT C2 assay (phosphatidylserine scramblase function assay). Type of assay: cell-based. Conditions: FRT cells expressing human ANO6, 10 μM ionomycin; for inhibition at 0.1 µM: test compound 100 nM, read-out: Inhibition Level 100 nM; for inhibition at 1 µM: test compound 1 μM, read-out: Inhibition Level 1 μM. An outline of the steps: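 Inhibition was normalised between ionomycin-only (0%) and untreated (100%) wells, with triplicates averaged. Readout was background-corrected Lact-C2-GFP (500 nM) fluorescence from imaged cells. The cells were FRT cells stably expressing human ANO6, given compound at 1% DMSO for 10 min before a 10 min 10 μM ionomycin challenge.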

Assay [1] deals with platelet-rich plasma (PRP). The experiment in a line: Recalcification time of rat platelet-rich plasma. The note with it: 30 μM, vs 2% DMSO control. The protocol:
Example 5: Recalcification Time
(§1) 1. Materials and Instruments
Isoflurane (Hana Pharm, cat. #9008), Isotonic Sodium Chloride Injection (Daihan Pharm, cat. #331), Citrate-dextrose solution (Sigma-Aldrich, cat. #C3821), Calcium chloride solution (Sigma-Aldrich, cat. #21115), 22G Syringe 10 mL (Koreavaccine), Dimethyl sulfoxide (Sigma-Aldrich, cat. #D5879), Apixaban (AK scientific, cat. #X1060), 96 Well Cell Culture Plates (SPL Life Sciences, cat. #30096), Synergy H4 Hybrid Microplate Reader (BioTek), Combi R515 Multi-purpose Centrifuge (Hanil Scientific), BS-06 Shaking & Heating Baths (JEIO TECH), and PST-60HL-4 Plate Shaker-Thermostat (Bio-San)
Seven-week-old male SD Rat (ORIENT BIO.) were maintained under controlled conditions of temperature (22±2° C.) and 12-h light/12-h dark cycle. Rats were housed in the pathogen-free facility of the Laboratory Animal Research Center in Ildong Pharmaceutical Co. Ltd. All procedures on animals were conducted in accordance with the relevant national regulatory guidelines and individual experiments approved by the Ildong Pharmaceutical Co. Ltd., Institutional Animal Care and Use Committee (IACUC) (approval No.: A2106-3, 2108-4).
The ability of test compounds to interfere with plasma coagulation, in the presence of platelets, was analyzing by measuring the recalcification time of rat plasma. The blood of animals was collected into 15 mL tubes containing Citrate-dextrose solution (9:1 v/v) before performing the assays. For recalcification time, platelet-rich plasma (PRP) samples were obtained by centrifugation at 360×g for 10 minutes. And the PRP were preincubated for 5 minutes (37° C.). In a 96 well microplate, test compounds (2 μL) were treated in 98 μL of platelet rich plasma. After mixing with a pipette, it was incubated at 37° C. for 15 minutes. The reaction was started by addition of 200 μL of pre-warmed CaCl2) (16 mM). Immediately, put the microplate in a microplate reader and the signals were measured by the following steps.
(1) 405 nm wavelength absorbance signals were recorded in every 10 seconds at 37° C.
(2) Basal absorbance signals were recorded for 0 second.
The signal variance of each of the test compounds was obtained by the following step.
(1) Background signals (t=O) were subtracted from recording values, and the resulting values were converted to change values. The values at 0 second were set to be zero.
The retardation time of test compound were calculated by the following formula:
Retardation time (sec)=[log EC50 (test sample)−log EC50 (DMSO control)]
As described above, a DMSO control group is a group to which 2% DMSO was treated.
The assay result is shown in Table 5, where compounds (30 μM) having less than 20 seconds of retardation time are marked by ‘C’; the compounds (30 μM) having retardation time of 20 seconds or more to less than 50 seconds are marked by ‘B’; and the compounds (30 μM) having retardation time of 50 seconds or more are marked by ‘A’.

The subject of a further assay is citrated human blood. Briefly: NATEM (ROTEM thromboelastometry, blood clot formation). Conditions: 100 μM, 2% v/v DMSO, 15 min preincubation. The protocol: as §1
Star-TEM reagent (TEM International GmbH, cat. #000503-01), Dimethyl sulfoxide (Sigma-Aldrich, cat. #D2438), Cleancle normal saline (JW Pharm), and ROTEM® delta system (TEM International GmbH).
Human blood research was experimented after approval from the Yonsei University Institutional Review Board (IRB) in accordance with the Life Ethics and Safety Act.
Blood samples for NATEM were kept at room temperature, and all NATEM analyses were performed at 37° C. NATEM was carried out using 300 μL of citrated human blood preincubating with test compounds (100 μM, 2% v/v DMSO) for 15 minutes in cuvette and […] with Star-TEM reagent according to the manufacturer's manual (ROTEM; Tem International GmbH, Munich, Germany). After addition of the star-TEM reagent, cuvettes were measured by ROTEM® delta system. Blood clot formation was evaluated.
The obtained parameters were time to clot initiation (Clotting Time, CT), time to clot formation, α angle for clot growth kinetics (initial rate of fibrin polymerization), amplitude (firmness) at 10 minutes, maximum clot firmness, and maximum lysis.

Data on three compounds can be found in patent US20230080054A1 (ILDONG PHARMACEUTICAL CO., LTD., priority 2021, published 2023).

On to `O=C(N[C@@H]1C[C@H]1c1ccccc1)c1cccc(Nc2ccc(-c3ccncn3)cc2)c1` [Compound 174, N-((1R,2S)-2-phenylcyclopropyl)-3-((4-(pyrimidin-4-yl)phenyl)amino)benzamide], for which the inhibition at 0.1 µM on human ANO6 was no less than 60%. Also, the “Inhibition Level (retardation time, recalcification time)” value in assay [1] is “B (the compounds (30 μM) having retardation time of 20 seconds or more to less than 50 seconds)”. In addition, in the assay on citrated human blood, the “A10, amplitude (firmness) at 10 minutes” value turned out to be 45 mm; the “CFT, clot formation time” value is 180 s; the “CT, clotting time” value is 665 s; the “MCF, maximum clot firmness” value was found to be 56 mm. Besides, in the assay on citrated human blood, the “ML, maximum lysis” value is listed as 2% and the “α, α-angle” value is reported as 57 °.
With `O=C(N[C@@H]1C[C@H]1c1ccccc1)c1cccc(Nc2ccc(-c3ccccn3)cc2)c1` [Compound 155, N-((1R,2S)-2-phenylcyclopropyl)-3-((4-(pyridin-2-yl)phenyl)amino)benzamide], on human ANO6, the inhibition at 0.1 µM was no less than 60% and the inhibition at 1 µM is no less than 60%. The “Inhibition Level (retardation time, recalcification time)” value in assay [1] is on record as “A (the compounds (30 μM) having retardation time of 50 seconds or more)”. In the assay on citrated human blood, the “A10, amplitude (firmness) at 10 minutes” value is on record as 45 mm; the “CFT, clot formation time” value turned out to be 168 s; the “CT, clotting time” value stood at 616 s; the “MCF, maximum clot firmness” value is recorded as 57 mm. In the assay with citrated human blood, the “ML, maximum lysis” value was found to be 2% and the “α, α-angle” value is listed as 59 °.
With `O=C(Nc1cccc([N+](=O)[O-])c1)c1cccc(Nc2ccc(-c3cccc(F)c3)cn2)c1` [Compound 141, 3-((5-(3-fluorophenyl)pyridin-2-yl)amino)-N-(3-nitrophenyl)benzamide], at human ANO6, the inhibition at 0.1 µM is no less than 60% and the inhibition at 1 µM is no less than 60%. For the same compound, in assay [1], the “Inhibition Level (retardation time, recalcification time)” value was “A (the compounds (30 μM) having retardation time of 50 seconds or more)”.
